US10251395B2, “Substituted furano-/thienocycloalkylamino-2-pyrimidine derivatives and use thereof for controlling undesired plant growth” (Bayer CropScience Aktiengesellschaft, priority 2015, dated 2019)

What was measured:
Format in all cases: in vivo
[1] = tested on: Matricaria inodora; assay: Pre-emergence herbicidal effect; details: scored visually after 3 weeks
Text: (§1) Seeds of monocotyledonous and dicotyledonous weed plants and crop plants are laid out in wood-fiber pots in sandy loam and covered with soil. The compounds of the invention, formulated in the form of wettable powders (WP) or as emulsion concentrates (EC), are then applied to the surface of the covering soil as aqueous suspension or emulsion at a water application rate equating to 600 to 800 L/ha with addition of 0.2% wetting agent.
(§2) After the treatment, the pots are placed in a greenhouse and kept under good growth conditions for the trial plants. The damage to the test plants is scored visually after a test period of 3 weeks by comparison with untreated controls (herbicidal activity in percent (%): 100% activity=the plants have died, 0% activity=like control plants).
(§3) • ABUTH: Abutilon theophrasti ALOMY: Alopecurus myosuroides • AMARE: Amaranthus retroflexus AVEFA: Avena fatua • CYPES: Cyperus esculentus ECHCG: Echinochloa crus-galli • LOLMU: Lolium multiflorum MATIN: Matricaria inodora • PHBPU: Ipomoea purpurea POLCO: Polygonum convolvulus • SETVI: Setaria viridis STEME: Stellaria media • VERPE: Veronica persica VIOTR: Viola tricolor

[2] = tested on: Stellaria media; assay: Pre-emergence herbicidal effect; details: scored visually after 3 weeks
Text: as §1, §2, §3

[3] = tested on: Viola tricolor; assay: Pre-emergence herbicidal effect; details: scored visually after 3 weeks
Text: as §1, §2, §3

[4] = tested on: Abutilon theophrasti; assay: Post-emergence herbicidal effect; details: 320 g/ha, assessed visually after about 3 weeks vs untreated controls
Text: (§4) • ABUTH: Abutilon theophrasti ALOMY: Alopecurus myosuroides • AMARE: Amaranthus retroflexus AVEFA: Avena fatua • CYPES: Cyperus esculentus ECHCG: Echinochloa crus-galli • LOLMU: Lolium multiflorum MATIN: Matricaria inodora • PHBPU: Ipomoea purpurea POLCO: Polygonum convolvulus • SETVI: Setaria viridis STEME: Stellaria media • VERPE: Veronica persica VIOTR: Viola tricolor Seeds of monocotyledonous and dicotyledonous weed and crop plants are laid out in sandy loam in wood-fiber pots, covered with soil and cultivated in a greenhouse under good growth conditions. 2 to 3 weeks after sowing, the test plants are treated at the one-leaf stage. The compounds of the invention, formulated in the form of wettable powders (WP) or as emulsion concentrates (EC), are then sprayed onto the green parts of the plants as aqueous suspension or emulsion at a water application rate equating to 600 to 800 L/ha with addition of 0.2% wetting agent. After the test plants have been left to stand in the greenhouse under optimal growth conditions for about 3 weeks, the action of the preparations is assessed visually in comparison to untreated controls (herbicidal action in percent (%): 100% activity=the plants have died, 0% activity=like control plants).

[5] = tested on: Stellaria media; assay: Post-emergence herbicidal effect; details: assessed visually after about 3 weeks vs untreated controls
Text: as §4

[6] = tested on: Amaranthus retroflexus; assay: Pre-emergence herbicidal effect; details: scored visually after 3 weeks
Text: as §1, §2, §3

[7] = tested on: Veronica persica; assay: Pre-emergence herbicidal effect; details: scored visually after 3 weeks
Text: as §1, §2, §3

[8] = tested on: Veronica persica; assay: Post-emergence herbicidal effect
Text: as §4

[9] = tested on: Viola tricolor; assay: Post-emergence herbicidal effect
Text: as §4

[10] = tested on: Setaria viridis; assay: Pre-emergence herbicidal effect; details: Dosage 320 g/ha, scored visually after 3 weeks
Text: as §1, §2, §3

[11] = tested on: Amaranthus retroflexus; assay: Post-emergence herbicidal effect; details: assessed visually after about 3 weeks vs untreated controls
Text: as §4

[12] = tested on: Polygonum convolvulus; assay: Pre-emergence herbicidal effect; details: Dosage 320 g/ha, scored visually after 3 weeks
Text: as §1, §2, §3

[13] = tested on: Alopecurus myosuroides; assay: Pre-emergence herbicidal effect; details: Dosage 320 g/ha, scored visually after 3 weeks
Text: as §1, §2, §3

[14] = dosage not printed (first line of Ex. 30)
[15] = 320 g/ha, assessed visually after about 3 weeks vs untreated controls
[16] = 80 g/ha, assessed visually after about 3 weeks vs untreated controls

Structure (SMILES)	MATIN pre-emergence efficacy (herbicidal activity) ([1]; Dosage 320 g/ha) [%]	STEME pre-emergence efficacy (herbicidal activity) ([2]; Dosage 320 g/ha) [%]	VIOTR pre-emergence efficacy (herbicidal activity) ([3]; Dosage 320 g/ha) [%]	AMARE pre-emergence efficacy (herbicidal activity) ([6]; Dosage 320 g/ha) [%]	STEME pre-emergence efficacy (herbicidal activity) ([2]; Dosage 80 g/ha) [%]	VERPE pre-emergence efficacy (herbicidal activity) ([7]; Dosage 320 g/ha) [%]	VERPE pre-emergence efficacy (herbicidal activity) ([7]; Dosage 80 g/ha) [%]	POLCO pre-emergence efficacy (herbicidal activity) [12] [%]	also measured
Cc1sc(C)c2c1CCCC2Nc1ncc(C(F)(F)F)c(N)n1 (racemic) [compound 2]	80	100	100						
Nc1nc(NC2CCCc3occc32)ncc1C(F)(F)F (racemic) [compound 7]	90	90	100	100	80				post-emergence efficacy ABUTH [4]: 40%; post-emergence efficacy STEME ([5]; 320 g/ha): 80%
COc1nc(NC2CCCc3sc(C)cc32)ncc1C(F)(F)F (racemic) [compound 10]		100		80		100			
N=S(=O)(c1ccccc1)c1cnc(NC2CCCc3sccc32)nc1N (racemic) [compound 27]	100	100	100	100		100			MATIN pre-emergence efficacy (herbicidal activity) ([1]; Dosage 80 g/ha): 90%
Cc1cc2c(s1)CCCC2Nc1ncc(C(=O)C(F)(F)Cl)c(N)n1 (racemic) [compound 30]	100	100	100	100	90	100	90		post-emergence efficacy VERPE [8, 14]: 80%; post-emergence efficacy VIOTR [9, 14]: 90%; post-emergence efficacy VIOTR ([9]; dosage not printed (second line of Ex. 30)): 80%; MATIN pre-emergence efficacy (herbicidal activity) ([1]; Dosage 80 g/ha): 100%; AMARE pre-emergence efficacy (herbicidal activity) ([6]; Dosage 80 g/ha): 90%; VIOTR pre-emergence efficacy (herbicidal activity) ([3]; Dosage 80 g/ha): 100%; SETVI pre-emergence efficacy (herbicidal activity) [10]: 90%
Cc1cc2c(s1)CCC2Nc1ncc(S(=O)(=O)NCc2ccc(F)cc2)c(N)n1 (racemic) [compound 38]	100			90		90			post-emergence efficacy VERPE [8, 15]: 90%; post-emergence efficacy AMARE ([11]; 320 g/ha): 80%
C/C(=N/O)c1cnc(NC2CCCc3sc(Cl)cc32)nc1C (racemic) [compound 259]		100	80			100			SETVI pre-emergence efficacy (herbicidal activity) [10]: 100%
Cc1cc2c(s1)CCCC2Nc1ncc(-c2cccc(F)c2)c(N)n1 (racemic) [compound 265]	100	100				100	100	60	post-emergence efficacy VERPE [8, 16]: 90%; post-emergence efficacy VERPE [8, 15]: 90%; post-emergence efficacy AMARE ([11]; 80 g/ha): 80%; post-emergence efficacy AMARE ([11]; 320 g/ha): 80%; post-emergence efficacy STEME ([5]; 80 g/ha): 60%; post-emergence efficacy STEME ([5]; 320 g/ha): 60%; post-emergence efficacy VIOTR [9, 16]: 80%; post-emergence efficacy VIOTR [9, 15]: 80%
Cc1cc2c(s1)CCCC2Nc1ncc(-c2cccc(Cl)c2)c(N)n1 (racemic) [compound 297]	100	100	90		80	100	100		MATIN pre-emergence efficacy (herbicidal activity) ([1]; Dosage 80 g/ha): 90%; VIOTR pre-emergence efficacy (herbicidal activity) ([3]; Dosage 80 g/ha): 70%
Cc1cc2c(s1)CCCC2Nc1nc(N)c(S(C)(=O)=O)c(C(F)(F)F)n1 (racemic) [compound 298]	100	100	100	100	100	100	100	50	post-emergence efficacy AMARE ([11]; 80 g/ha): 70%; post-emergence efficacy AMARE ([11]; 320 g/ha): 90%; post-emergence efficacy VIOTR [9, 16]: 80%; post-emergence efficacy VIOTR [9, 15]: 80%; ALOMY pre-emergence efficacy (herbicidal activity) [13]: 90%; VIOTR pre-emergence efficacy (herbicidal activity) ([3]; Dosage 80 g/ha): 90%
Cc1cc2c(s1)CCCC2Nc1nc(N)c(-c2cncc(F)c2)c(C(F)F)n1 (racemic) [compound 299]	90		100	100					post-emergence efficacy VIOTR [9, 15]: 90%; ALOMY pre-emergence efficacy (herbicidal activity) [13]: 100%; SETVI pre-emergence efficacy (herbicidal activity) [10]: 90%
Cc1cccc(-c2c(N)nc(NC3CCCc4sc(C)cc43)nc2C(F)F)c1 (racemic) [compound 304]		100				100	100	60	
CON=C(C)c1cnc(NC2CCCc3sccc32)nc1N (racemic) [compound 310]		90	100						
Cc1cc2c(s1)CCCC2Nc1nc(N)c(-c2cncc(F)c2)c(C(C)F)n1 (racemic) [compound 316]	80	100	100	100		100		70	post-emergence efficacy VERPE [8, 15]: 100%; post-emergence efficacy VIOTR [9, 15]: 80%
Cc1cc2c(s1)CCCC2Nc1nc(N)c(S(C)(=O)=O)c(C(C)F)n1 (racemic) [compound 318]	90	100	100	100		100		100	SETVI pre-emergence efficacy (herbicidal activity) [10]: 100%
CC(=NOC(C)C)c1cnc(NC2CCCc3sc(C)cc32)nc1N (racemic) [compound 342]	100	100			100	100	100		ALOMY pre-emergence efficacy (herbicidal activity) [13]: 70%
CC(=O)c1cnc(NC2CCCc3sc(Cl)cc32)nc1C (stereo not shown) [compound 303]	90	100	90	100	100	100	100	60	MATIN pre-emergence efficacy (herbicidal activity) ([1]; Dosage 80 g/ha): 80%; AMARE pre-emergence efficacy (herbicidal activity) ([6]; Dosage 80 g/ha): 100%; VIOTR pre-emergence efficacy (herbicidal activity) ([3]; Dosage 80 g/ha): 70%
